Reference: patent US9700525B2, “Continuous local slow-release of therapeutics for head and neck problems and upper aerodigestive disorders” (Board of Supervisors of Louisiana State University and …, priority 2008, dated 2017)

Tests used:
Akt/mTOR pathway = experiment: Model of minimal residual disease; format: in vivo
mTOR pathway markers = conditions: tumors and PBMCs of HNSCC patients; cited from earlier work
DMBA-induced oral tumors = conditions: 10 μmol topically 3 times/week for 24 weeks; cited from earlier work
SCC40 xenografts = experiment: Akt/mTOR pathway markers in SCC40 xenografts of treated mice; format: in vivo; conditions: mice with SCC40 xenografts treated with curcumin
[1] = system: normal fibroblast cell line CCL110; experiment: Effect on proliferation of normal fibroblast cell line; format: cell-based
[2] = system: prostate cancer xenograft; conditions: p.o. gavage 5 mg/day, 5 days/week for 4 weeks; cited from earlier work
tumor cells = experiment: Chemoprevention model: pre-treatment before tumor cell injection, tumor volumes; format: in vivo, Balb/c nu/nu mice; conditions: pre-treated 4 days prior to injecting tumor cells
Experimental: Balb/c nu/nu mice were randomized into treatment groups. […] Tumors were measured over approximately three weeks. […] ANOVA analysis. […] This also points to its role as a chemopreventive agent rather than a therapeutic agent.

TPA-induced tumors = conditions: topical application of 10 μmol twice weekly; cited from earlier work
HNSCC cell lines = experiment: Inhibition of cell proliferation in HNSCC cell lines; format: cell-based
Source text: While curcumin can be used to treat these cancers, other compounds that act on these pathways may also be useful in treating these cancers and it should be readily recognized that such compounds could also be delivered by including in the formulations described herein.

[3] = system: NFκB and Akt/mTOR pathways; experiment: Modulation of NFκB and Akt/mTOR pathways in cell lines (western blot); format: cell-based
[4] = following oral administration; cited from earlier work

## CO[C@H]1C[C@@H]2CC[C@@H](C)[C@@](O)(O2)C(=O)C(=O)N2CCCC[C@H]2C(=O)O[C@H]([C@H](C)C[C@@H]2CC[C@@H](OC(=O)C(C)(CO)CO)[C@H](OC)C2)CC(=O)[C@H](C)/C=C(\C)[C@@H](O)[C@@H](OC)C(=O)[C@H](C)C[C@H](C)/C=C/C=C/C=C/1C [CCI-779, temsirolimus]
Akt/mTOR pathway
  survival: improve survival
  tumor formation: inhibit tumor formation
mTOR pathway markers
  modulation of mTOR pathway markers: modulation of these markers

## COc1cc(/C=C/C(=O)CC(=O)/C=C/c2ccc(O)c(OC)c2)ccc1O [curcumin]
DMBA-induced oral tumors
  reduction of the number of DMBA-induced oral tumors: ~40%
SCC40 xenografts
  change in pAkt: significant decrease
  change in pS6: significant decrease
[1]
  dose required to see effects: 20 to 40 µM
[2]
  inhibition of growth of prostate cancer xenograft: ~50%
Tumor cells; 10 mg
  difference in tumor volumes vs control (vehicle treated): no significant difference
Tumor cells; 15 mg, about three weeks
  difference in tumor volumes vs control (vehicle treated): statistically significant difference
TPA-induced tumors
  inhibition of the number of tumors per mouse: 98%
HNSCC cell lines; all 10 HNSCC cell lines tested to date
  growth inhibitory effect: growth inhibitory effects
HNSCC cell lines; three HNSCC cell lines, 10 μM, 48 hours
  growth inhibitory effect: significant growth inhibitory effects
HNSCC cell lines; variety of HNSCC cell lines, in vitro
  concentration giving consistent inhibition of cell proliferation: less than 10 μM
[3]; PCI15a cells, 10 μM, 24 and 48 hours
  change in pNFκB: no change
[3]; PCI15a cells, 10 μM, 48 hours
  change in pAkt: down-regulated
  change in pS6 downstream of mTOR: down-regulated
[3]; SCC40 cells, 10 μM
  change in the Akt/mTOR pathway: no change
[3]; SCC40 cells, 10 μM, 48 hours
  change in pNFκB: down-regulation
[3]; SCC066 cells, 10 μM
  modulation of the Akt/mTOR pathway: did not show any modulation
[3]; normal fibroblast cell line CCL110, 10 μM
  change in pNFκB or Akt/mTOR: no decrease
[4]
  bioavailability: low bioavailability
